Assay results: PMC8321398, “The discovery of a novel series of compounds with single-dose efficacy against juvenile and adult Schistosoma species” (PLoS Neglected Tropical Diseases, 2021)
Read-outs that look alike come from different tables or passages of the source.

Key:
Adult S. mansoni = assay: In vitro adult S. mansoni worm assay; type: cell-based; conditions: Schistosoma mansoni, 120 h incubation
From the text: The Puerto Rican strain of S. mansoni was maintained in Biomphalaria glabrata and CD1 mice. Oncomelania hupensis (hupensis) infected with S. japonicum (Chinese strain) and Bulinus truncatus (truncatus) infected with Egyptian strain S. haematobium were obtained from BEI Resources, NIAID, NIH. Infection of mice for worm recovery was as previously described except that, whereas cercariae of S. mansoni and S. haematobium were obtained by shedding from infected snails under lights, cercariae of S. japonicum were obtained by gently crushing the snails. Furthermore, adult S. haematobium were recovered after 12 weeks following mouse infection.
In vitro efficacy was carried out as previously described. In brief, worms were recovered from infected mice by portal perfusion 3 weeks (for juveniles) or 6 weeks (for adults) post-infection using warm perfusion medium (Dulbecco’s Modified Eagle’s Medium [DMEM], 2mM L-glutamine, 100 Units/ml penicillin, 100μg/ml streptomycin, 20mM Hepes, 10 Units/ml heparin [Sigma, UK]). Worms were washed free of red blood cells using the perfusion medium, and finally suspended in complete medium (cDMEM: DMEM, 2mM L-glutamine, 100 Units/ml penicillin, 100μg/ml streptomycin, 10% FCS). The juvenile assays were carried out in 96-well plates, each well containing 6–8 worms in 200 μL cDMEM. The adult worm assay was in 24-well plates, each well containing 3 worm pairs in 1mL cDMEM. Both the juvenile and adult worm cultures were kept at 37° C, in an atmosphere of 5% CO2. Drug effects were determined on day 5 following drug treatment by assessing the viability of individual worms as described in [14].

[1] = Metabolic stability in human hepatocytes; type: in vitro ADME; conditions: hepatocytes (suspension); for remaining at 1.5 h, 1 µM: pH 7.4, 90 min incubation, read-out: Human hepatocyte % remaining at 90 min; for remaining at 0.5 h, 1 µM: pH 7.4, 30 min incubation, read-out: Human hepatocyte % remaining at 30 min
Method: 100 μM compound stock solution was prepared from 5 μL of 4 mM stock in DMSO + 195 μL MeCN. Working solution (2 μM compound) was prepared using 10 μL of 100 μM stock + 490 μL buffer pH 7.4 (KHB supplemented with CaCl2, NaHCO3, HEPES, fructose, glycine; pH 7.4).
Working solution (25 μL, 2 μM) was added in duplicate to wells in a 0.5 mL per well, 96 well plate which was preincubated to reach 37°C. Hepatocyte suspension (25 μL) was added to each plate, and the plate incubated (37°C, 95% relative humidity with 5% CO2 supply) under gentle mixing (Thermomixer @300 rpm). After designated time periods, ice-cold MeCN (250 μL) was added with a suitable standard. For T = 0 min, ice-cold MeCN (250 μL) with suitable standard was added to the working solution (2 μM) and hepatocyte suspension (25 μL) added. The plates for each time point were shaken, sonicated for 5 mins and kept at 4°C until the final plate was processed. The plates were centrifuged at 4,000 rpm for 20 min, supernatant (110 μL) was mixed with water (110 μL) and the samples analysed using LC-MS/MS.

[2] = In vivo efficacy, mouse model of juvenile (21-day old) S. mansoni infection; conditions: female, CD1, plasma, mouse, Juvenile infection, read-out: Plasma conc @24 h (efficacy experiment)
Method: (§1) Prior to in vivo efficacy experiments, a single animal was given a dose of drug (using the same formulation) that was twice as large as that planned for use in the efficacy experiments and was observed periodically for adverse clinical signs for 24h by trained veterinarians. Adverse clinical signs checked include postural defect, vocalization, oculo-nasal discharge, hypersalivation, change in activity, abnormal gait, respiration and pulse, piloerection, loss of pupillary reflex, eyelid reflex, chromodacryorrhea, reaction to handling, tremor, convulsions, prostration, diarrhoea, cachexia, emaciation. […] In vivo efficacy was assessed in female CD1 mice using methods based on those previously described. Mice were infected subcutaneously with 150 cercariae. Test compounds were suspended in 7% Tween-80 / 3% Ethanol / double distilled water and drug dispersal was facilitated by vortexing and using a sonicating water bath (Formulation “Aqueous”). Alternatively, drugs were first dissolved in DMSO, then diluted with corn oil to give a 1:19 DMSO:corn oil solution/suspension of test compound (Formulation “Corn oil”). Dosing was by oral gavage. Mice in the negative control groups were given the drug suspension vehicle only. Positive controls for treatment of adult, day 42 old, infections were treated with PZQ and those for juvenile, day 21 old, infections with artemether, which unlike PZQ is effective against the juvenile worm infections in mice. During and following treatment, mice were closely observed for any ill effects by staff experienced in animal handling. This involved individuals who were blinded to the treatment groups. Effects they were trained to look for included hunching, immobility, piloerection, subdued behaviour, diarrhoea and loss of body condition. None were seen. Worms were recovered by portal perfusion with citrate saline 8–14 days post treatment and counted. Differences between groups relative to the non-drug treated controls were assessed for statistical significance by Student’s unpaired t-test using GraphPad Prism Software. P values are presented as follows:- ns–P > 0.05 (not significant), * P ≤ 0.05, ** P ≤ 0.01, *** P ≤ 0.001, **** P ≤ 0.0001.
(§2) For pharmacokinetic analysis during the in vivo efficacy experiments individual animals were only sampled once. Samples were taken from one animal in each experimental group at each of 1, 4, 8 h and samples from two animals in each group were taken at 24 h.

[3] = system: S. mansoni juvenile worms; assay: as above; conditions: for Worms remaining: Juvenile infection; for in vivo EC50 against juvenile worms: mouse model, single oral dose (Fig 9C); for clearing juvenile worm infections in vivo: 12.5 mg/kg oral single dose (Fig 9D); for worm reduction: juvenile worms; for efficacy in vivo against juvenile worm infection: 21-day old infections, single oral dose, Aqueous formulation (Fig 8)
Method: as §1, §2

[4] = Human dose prediction with the PK Tool; conditions: for human single oral dose prediction: PK Tool, predicted plasma conc at 24 h 7 fold above calculated adult worm blood potency
From the text: • We assume that the plasma concentration achieved in mouse sufficient to kill worms is the same as the plasma concentration we need to achieve in humans to see the same effect. A component element is an assumption that the mechanism of S. mansoni worm reduction in mouse and human are the same. • We assume that allometric scaling can be used to estimate human clearance based on mouse clearance. One factor that would make this assumption unsafe is if the clearance mechanisms and rates for our series in mouse and human were different. Fortunately, in vivo clearance correlates well with metabolic stability calculated from in vitro mouse hepatocyte measurements (Fig 7A). In vitro stability estimates in mouse and human hepatocytes are also fairly well correlated (Fig 7B).
Estimates of dose prediction in human were made using the PK Tool. A simple estimate of an effective human dose for LSHTM-3520 can be made by making the assumption that a plasma concentration of 2,000 ng/mL 24 h after oral administration (the same as that achieved in Fig 6B) would give sufficient clinical efficacy. […] To design compounds with a lower predicted human dose we pursued two strategies, one to improve potency by optimisation of the core and substituents, the other to decrease clearance through blocking positions we thought likely to be vulnerable to metabolic enzymes and/or conformational restriction.
Assuming linear kinetics the plasma levels scaled from the low-dose oral PK experiment (2.5 mg/kg) for LSHTM-3520 (8 ng/mL) after 24 h would be 160 ng/mL from […] and 640 ng/mL at […].

[5] = Table 2, in vitro, read-out: Adult S. mansoni EC50
[6] = Table 3, S. mansoni, read-out: Sm adult EC50
[7] = oral 12.5 mg/kg, formulation corn oil
[8] = mouse, oral 12.5 mg/kg, formulation corn oil
[9] = mouse, oral 50 mg/kg, formulation Aq

Row | SMILES | EC50 (Adult S. mansoni; [5]) | EC50 (Adult S. mansoni; [6]) | remaining at 1.5 h, 1 µM [1] | concentration at 24 h [2, 7] | Worms remaining [3, 8] | human single oral dose prediction [4] | in vivo EC50 against juvenile worms [3] | clearing juvenile worm infections in vivo ([3]; mouse) | remaining at 0.5 h, 1 µM [1] | concentration at 24 h ([2]; oral 50 mg/kg, formulation Aq) | efficacy in vivo against juvenile worm infection ([3]; mouse) | Worms remaining [3, 9] | further results
1 | Fc1ccc(-c2cn3c(-c4ccc5[nH]ncc5c4F)c(C(F)(F)F)nc3cn2)cc1C(F)(F)F [LSHTM-3642, 3-(4-fluoro-1H-indazol-5-yl)-6-(4-fluoro-3-(trifluoromethyl)phenyl)-2-(trifluoromethyl)imidazo[1,2-a]pyrazine] | 27 nM | 27.3 nM | 105% | 1320 ng/mL | 5% | 20 mg/kg |  |  |  |  |  |  | concentration at 24 h ([2]; oral 25 mg/kg, formulation Aq): 1700 ng/mL; Worms remaining ([3]; mouse, oral 25 mg/kg, formulation Aq): 1.8%
2 | Fc1c(-c2c(C(F)(F)F)nc3cnc(-c4cccc(C(F)(F)C(F)(F)F)c4)cn23)ccc2[nH]ncc12 [LSHTM-3608] | 15.3 nM | 15.3 nM | 98% | 879 ng/mL | 0% | 2.5 mg/kg | below 6.25 mg/kg | extremely effective |  |  |  |  | worm reduction ([3]; mouse, single oral dose 12.5 mg/kg): 100%
3 | Fc1ccc(-c2cn3c(-c4ccc5[nH]ncc5c4F)c(C(F)(F)F)nc3cn2)cc1C(F)(F)C(F)(F)F [LSHTM-3645] | 9.7 nM | 9.7 nM | 105% | 984 ng/mL | 0% | 3.5 mg/kg | below 6.25 mg/kg | extremely effective |  |  |  |  | concentration at 24 h ([2]; oral 6.25 mg/kg, formulation corn oil): 708 ng/mL; Worms remaining ([3]; mouse, oral 6.25 mg/kg, formulation corn oil): 1.8%; worm reduction ([3]; mouse, single oral dose 6.25 mg/kg): 98%
4 | CC(C)c1nc2cnc(-c3ccc(F)c(C(F)(F)F)c3)cn2c1-c1ccc2[nH]ncc2c1F [LSHTM-3604] | 31.5 nM |  | 98% |  |  | 6 mg/kg |  |  | 99% | 505 ng/mL | effective | 12% | concentration at 24 h ([2]; oral 25 mg/kg, formulation corn oil): 223 ng/mL; Worms remaining ([3]; mouse, oral 25 mg/kg, formulation corn oil): 13%
5 | CC(C)c1cc(-c2cn3c(-c4ccc5[nH]ncc5c4F)c(C4CC4)nc3cn2)ccc1F [LSHTM-3686] | 5.4 nM | 5.4 nM | 75% |  |  | 1 mg/kg |  |  |  |  |  |  | concentration at 24 h ([2]; oral 6.25x2 mg/kg (12 h apart), formulation corn oil): 37.2 ng/mL; Worms remaining ([3]; mouse, oral 6.25x2 mg/kg (12 h apart), formulation corn oil): 25%; worm burden reduction ([3]; mouse, juvenile infection, 6.25 mg/kg given twice 12 h apart): 75%
6 | CC(C)c1nc2cnc(-c3ccc(F)c(C(F)(F)F)c3)cn2c1-c1c(F)cc(O)cc1F [LSHTM-3520] | 46 nM | 46.2 nM |  |  |  | 25 mg/kg |  |  | 52% | 208 ng/mL | effective | 62% | concentration at 24 h ([2]; oral 200 mg/kg, formulation Aq): 1980 ng/mL; Worms remaining ([3]; mouse, oral 200 mg/kg, formulation Aq): 16%; predicted single human oral dose (simple estimate) ([4]; target 2,000 ng/mL at 24 h, allometric scaling from mouse, exponent 0.75): 48 mg/kg
